From patent publication US20230077362A1 (CORTEVA AGRISCIENCE LLC, priority 2019, published 2023)
Like-named read-outs stand apart in the source and are kept apart here.

How the values were obtained:
[1] = system: Cabbage Looper (Trichoplusia ni) ("CL"), second instar larvae; assay: Bioassay on cabbage looper (CL), 128-well diet tray assay; format: in vivo; details: for pest or weed control at 50 µg/cm2: Trichoplusia ni
Procedure, shortened: (§1)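 Mortality (%) is scored well by well after five to seven days at 25° C. on a 14:10 light:dark regime. The value given is the mean of eight wells.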

[2] = system: Beet Armyworm (Spodoptera exigua) ("BAW"), second instar larvae; assay: Bioassay on beet armyworm (BAW), 128-well diet tray assay; format: in vivo; details: for pest or weed control at 50 µg/cm2: Spodoptera exigua
Procedure, shortened: as §1

[3] = read-out: CL (Biological Results, rating)
[4] = read-out: BAW (Biological Results, rating)

Row | Compound | pest or weed control at 50 µg/cm2 ([1]; read-out: CL rating) [%] | pest or weed control at 50 µg/cm2 ([2]; read-out: BAW rating) [%] | pest or weed control at 50 µg/cm2 [1, 3] [%] | pest or weed control at 50 µg/cm2 [2, 4] [%] | also measured
1 | CC(=O)c1cc(-c2ncn(-c3ccc(OC(F)(F)F)cc3)n2)ccc1NC(=O)/N=C1\SCC(=O)N1c1cc(C)ccc1COCC(F)(F)F [Compound J398, (Z)-1-(2-Acetyl-4-(1-(4-(trifluoromethoxy)phenyl)-1H-1,2,4-triazol-3-yl)phenyl)-3-(3-(5-methyl-2-((2,2,2-trifluoroethoxy)methyl)phenyl)-4-oxothiazolidin-2-ylidene)urea] | 50 to 100 | 50 to 100 | – | – | –
2 | Cc1ccc(Cc2cccnc2)c(N2C(=O)CS/C2=N\C(=O)Nc2ccc(-c3ncn(-c4ccc(C(F)(F)F)cc4)n3)cc2F)c1 [Compound J758, (Z)-1-(2-Fluoro-4-(1-(4-(trifluoromethyl)phenyl)-1H-1,2,4-triazol-3-yl)phenyl)-3-(3-(5-methyl-2-(pyridin-3-ylmethyl)phenyl)-4-oxothiazolidin-2-ylidene)urea] | 50 to 100 | 50 to 100 | – | – | –
3 | Cc1ccc(COCCC(F)(F)F)c(N2C(=O)CS/C2=N\C(=O)Nc2ccc(-c3ncn(-c4ccccc4)n3)cc2F)c1 [Compound J779, (Z)-1-(2-Fluoro-4-(1-phenyl-1H-1,2,4-triazol-3-yl)phenyl)-3-(3-(5-methyl-2-((3,3,3-trifluoropropoxy)methyl)phenyl)-4-oxothiazolidin-2-ylidene)urea] | 50 to 100 | 50 to 100 | – | – | –
4 | CC(C)c1cc(N(C)C)ccc1N1C(=O)CS/C1=N\C(=O)Nc1ccc(-c2ncn(-c3ccc(OC(F)(F)F)cc3)n2)cc1F [Compound J112, (Z)-1-(3-(4-(Dimethylamino)-2-isopropylphenyl)-4-oxothiazolidin-2-ylidene)-3-(2-fluoro-4-(1-(4-(trifluoromethoxy)phenyl)-1H-1,2,4-triazol-3-yl)phenyl)urea] | – | – | 50 to 100 | 50 to 100 | –
5 | COCc1ccc(C)cc1N1C(=O)CS/C1=N\C(=O)Nc1ccc(-c2cn(-c3ccc(S(F)(F)(F)(F)F)cc3)cn2)cc1F [Compound J592, (Z)-1-(2-Fluoro-4-(1-(4-(pentafluoro-λ^6-sulfaneyl)phenyl)-1H-imidazol-4-yl)phenyl)-3-(3-(2-(methoxymethyl)-5-methylphenyl)-4-oxothiazolidin-2-ylidene)urea] | 50 to 100 | 50 to 100 | – | – | –
6 | CC(C)c1ccc(N(C)C)cc1N1C(=O)CS/C1=N\C(=O)Nc1ccc(-c2ncn(-c3cccc(OC(F)(F)F)c3)n2)cc1 [Compound J329, (Z)-1-(3-(5-(Dimethylamino)-2-isopropylphenyl)-4-oxothiazolidin-2-ylidene)-3-(4-(1-(3-(trifluoromethoxy)phenyl)-1H-1,2,4-triazol-3-yl)phenyl)urea] | – | – | 50 to 100 | 50 to 100 | –
7 | CCOC(C)c1ccc(C)cc1N1C(=O)CS/C1=N\C(=O)Nc1ccc(-c2ncn(-c3ccc(S(F)(F)(F)(F)F)cc3)n2)cc1C(F)(F)F (stereo not drawn) [Compound J631, (Z)-1-(3-(2-(1-Ethoxyethyl)-5-methylphenyl)-4-oxothiazolidin-2-ylidene)-3-(4-(1-(4-(pentafluoro-λ^6-sulfaneyl)phenyl)-1H-1,2,4-triazol-3-yl)-2-(trifluoromethyl)phenyl)urea] | 50 to 100 | 50 to 100 | – | – | –
8 | Cc1ccc(-c2ccco2)c(N2C(=O)CS/C2=N\C(=O)Nc2ccc(-c3ncn(-c4ccc(OC(F)(F)F)cc4)n3)cc2F)c1 [Compound J489, (Z)-1-(2-Fluoro-4-(1-(4-(trifluoromethoxy)phenyl)-1H-1,2,4-triazol-3-yl)phenyl)-3-(3-(2-(furan-2-yl)-5-methylphenyl)-4-oxothiazolidin-2-ylidene)urea] | 50 to 100 | 50 to 100 | – | – | –
9 | COCc1ccc(C)cc1N1C(=O)CS/C1=N\C(=O)Nc1ccc(-n2cnc(-c3ccc(OC(F)(F)F)cc3)n2)cc1Cl [Compound J730, (Z)-1-(2-Chloro-4-(3-(4-(trifluoromethoxy)phenyl)-1H-1,2,4-triazol-1-yl)phenyl)-3-(3-(2-(methoxymethyl)-5-methylphenyl)-4-oxothiazolidin-2-ylidene)urea] | 50 to 100 | 50 to 100 | – | – | –
10 | Cc1ccc(C(F)(F)F)c(N2C(=O)CS/C2=N\C(=O)Nc2ccc(-c3ncn(-c4ccc(OC(F)(F)F)cc4)n3)cc2Cl)c1 [Compound J39, (Z)-1-(2-Chloro-4-(1-(4-(trifluoromethoxy)phenyl)-1H-1,2,4-triazol-3-yl)phenyl)-3-(3-(5-methyl-2-(trifluoromethyl)phenyl)-4-oxothiazolidin-2-ylidene)urea] | – | – | 50 to 100 | 50 to 100 | –
11 | CCOCc1ccc(C)cc1N1C(=O)CS/C1=N\C(=O)Nc1ccc(-c2nnc(-c3ccc(OC(F)(F)F)cc3)o2)cc1F [Compound J610, (Z)-1-(3-(2-(Ethoxymethyl)-5-methylphenyl)-4-oxothiazolidin-2-ylidene)-3-(2-fluoro-4-(5-(4-(trifluoromethoxy)phenyl)-1,3,4-oxadiazol-2-yl)phenyl)urea] | 50 to 100 | 50 to 100 | – | – | –
12 | COc1cc(-c2ncn(-c3ccc(C(F)(F)F)cc3)n2)ccc1NC(=O)/N=C1\SCC(=O)N1c1cc(C)ccc1C(C)C [Compound J13, (Z)-1-(3-(2-Isopropyl-5-methylphenyl)-4-oxothiazolidin-2-ylidene)-3-(2-methoxy-4-(1-(4-(trifluoromethyl)phenyl)-1H-1,2,4-triazol-3-yl)phenyl)urea] | – | – | 50 to 100 | 50 to 100 | –
13 | O=C(/N=C1\SCC(=O)N1c1cc(C(F)(F)F)ccc1C(F)(F)F)Nc1ccc(-c2ncn(-c3ccc(OC(F)(F)F)cc3)n2)cc1F [Compound J50, (Z)-1-(3-(2,5-Bis(trifluoromethyl)phenyl)-4-oxothiazolidin-2-ylidene)-3-(2-fluoro-4-(1-(4-(trifluoromethoxy)phenyl)-1H-1,2,4-triazol-3-yl)phenyl)urea] | – | – | 50 to 100 | 50 to 100 | –
14 | CC(=O)c1cc(-c2ncn(-c3ccc(OC(F)(F)F)cc3)n2)ccc1NC(=O)/N=C1\SCC(=O)N1c1cc(N(C)C)ccc1C(C)C [Compound J396, (Z)-1-(2-Acetyl-4-(1-(4-(trifluoromethoxy)phenyl)-1H-1,2,4-triazol-3-yl)phenyl)-3-(3-(5-(dimethylamino)-2-isopropylphenyl)-4-oxothiazolidin-2-ylidene)urea] | 50 to 100 | 50 to 100 | – | – | –
15 | CC(C)c1ccc(N(C)C)cc1N1C(=O)CS/C1=N\C(=O)Nc1ccc(-c2ncn(-c3ccc(OC(F)(F)F)cn3)n2)cc1Cl [Compound J253, (Z)-1-(2-Chloro-4-(1-(5-(trifluoromethoxy)pyridin-2-yl)-1H-1,2,4-triazol-3-yl)phenyl)-3-(3-(5-(dimethylamino)-2-isopropylphenyl)-4-oxothiazolidin-2-ylidene)urea] | – | – | 50 to 100 | 50 to 100 | –
16 | COC(C)c1ccc(C)cc1N1C(=O)CS/C1=N\C(=O)Nc1ccc(-c2ncn(-c3ccc(OC(F)(F)F)cc3)n2)cc1F (stereo not drawn) [Compound J49, (Z)-1-(2-Fluoro-4-(1-(4-(trifluoromethoxy)phenyl)-1H-1,2,4-triazol-3-yl)phenyl)-3-(3-(2-(1-methoxyethyl)-5-methylphenyl)-4-oxothiazolidin-2-ylidene)urea] | – | – | 50 to 100 | 50 to 100 | –
17 | CC(C)c1cc(F)c(N(C)C)cc1N1C(=O)CS/C1=N\C(=O)Nc1ccc(-c2nnc(-c3ccc(OC(F)(F)F)cc3)o2)cc1F [Compound J432, (Z)-1-(3-(5-(Dimethylamino)-4-fluoro-2-isopropylphenyl)-4-oxothiazolidin-2-ylidene)-3-(2-fluoro-4-(5-(4-(trifluoromethoxy)phenyl)-1,3,4-oxadiazol-2-yl)phenyl)urea] | 50 to 100 | 50 to 100 | – | – | –
18 | COC(C)c1ccc(C)cc1N1C(=O)CS/C1=N\C(=O)Nc1ccc(-c2ncn(-c3ccc(S(F)(F)(F)(F)F)cc3)n2)cc1F (stereo not drawn) [Compound J423] | – | – | – | – | CL rating ([1]; Table ABC, species CL, C = not tested, D = no activity noticed): A (50-100); BAW rating ([2]; Table ABC, species BAW, C = not tested, D = no activity noticed): A (50-100)
19 | Cc1ccc(OCCC(F)(F)F)c(N2C(=O)CS/C2=N\C(=O)Nc2ccc(-c3ncn(-c4ccc(OC(F)(F)F)cn4)n3)cc2F)c1 [Compound J257, (Z)-1-(2-Fluoro-4-(1-(5-(trifluoromethoxy)pyridin-2-yl)-1H-1,2,4-triazol-3-yl)phenyl)-3-(3-(5-methyl-2-(3,3,3-trifluoropropoxy)phenyl)-4-oxothiazolidin-2-ylidene)urea] | – | – | 50 to 100 | 50 to 100 | –
20 | COC(c1ccc(C)cc1N1C(=O)CS/C1=N\C(=O)Nc1ccc(-n2cnc(-c3ccc(OC(F)(F)F)cc3)n2)cc1F)C(F)(F)F (stereo not drawn) [Compound J687, (Z)-1-(2-Fluoro-4-(3-(4-(trifluoromethoxy)phenyl)-1H-1,2,4-triazol-1-yl)phenyl)-3-(3-(5-methyl-2-(2,2,2-trifluoro-1-methoxyethyl)phenyl)-4-oxothiazolidin-2-ylidene)urea] | 50 to 100 | 50 to 100 | – | – | –
21 | Cc1ccc(COCC(F)(F)F)c(N2C(=O)CS/C2=N\C(=O)Nc2ccc(-c3ncn(-c4ccc(OC(F)(F)F)cc4)n3)cc2C(F)F)c1 [Compound J215, (Z)-1-(2-(Difluoromethyl)-4-(1-(4-(trifluoromethoxy)phenyl)-1H-1,2,4-triazol-3-yl)phenyl)-3-(3-(5-methyl-2-((2,2,2-trifluoroethoxy)methyl)phenyl)-4-oxothiazolidin-2-ylidene)urea] | – | – | 50 to 100 | 50 to 100 | –
